In ChEMBL document CHEMBL1201862, “PubChem BioAssay data set” (2004):
Activity calls are given as the source filed them.

Assays:
cells = type: functional, cell-based
[1] = target: T1, Nuclear receptor subfamily 0 group B member 1 (Homo sapiens, UniProt P51843); type: functional, cell-based;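 also: HEK293T cells transfected with SF-1 and DAX-1 plus StAR promoter luciferase reporter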
T1 sequence (P51843 whole entry): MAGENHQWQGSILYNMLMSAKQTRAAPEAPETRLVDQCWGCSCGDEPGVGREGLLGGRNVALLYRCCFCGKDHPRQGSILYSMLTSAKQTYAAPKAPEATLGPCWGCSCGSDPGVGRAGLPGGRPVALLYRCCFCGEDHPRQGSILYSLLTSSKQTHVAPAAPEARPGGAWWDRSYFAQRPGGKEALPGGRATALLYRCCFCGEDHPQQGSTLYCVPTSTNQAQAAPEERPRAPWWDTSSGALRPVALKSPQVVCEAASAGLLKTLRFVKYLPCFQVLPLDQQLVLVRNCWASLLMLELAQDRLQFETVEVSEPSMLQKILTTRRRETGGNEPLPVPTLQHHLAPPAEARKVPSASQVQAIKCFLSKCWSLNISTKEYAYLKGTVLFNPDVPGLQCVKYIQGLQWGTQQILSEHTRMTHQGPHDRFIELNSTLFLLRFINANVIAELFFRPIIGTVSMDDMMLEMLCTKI

[2] = Fluorescence-based cell-based high throughput dose response assay for inhibitors of the interaction of nucleotide-binding oligomerization domain containing 2 (NOD2) and the receptor-interacting serine-threonine kinase 2 (RIPK2).; type: functional; conditions: Homo sapiens
[3] = Luminescence Cell-Based Dose Retest to Confirm Inhibitors of Cancer Stem Cells. [Related pubchem assays (depositor defined):AID2717, AID2721]; type: functional; conditions: Homo sapiens
[4] = HepG2 cell cytotoxicity, dose response, cytotoxicity control for Shn3 inhibitor project, CellTiter-Glo, cherry-picked (AID 624134); type: functional, cell-based
[5] = control 3'UTR Renilla luciferase suppression, dose response, counter-screen for Shn3 inhibitor project, cell-based, Clone20-Shn3RL, cherry-picked (AID 624133); type: functional
[6] = Shn3 3'UTR reporter inhibitors, dose response, cell-based, Clone20 osteoblasts, firefly luciferase, cherry-picked (AID 624132); type: functional;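 also: firefly luciferase luminescence from reporter carrying the Shn3 3'UTR in osteoblasts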
[7] = Luminescence Cell-Based Dose Response HTS to Identify Inhibitors of 5'UTR Stem-Loop Driven Prion Protein mRNA Translation in H4 Neuroglioblastoma Cells. [Related pubchem assays: 1827 (Project Summary), 1813 (Primary HTS)]; type: functional
[8] = NIH-3T3 fibroblast cytotoxicity, dose response, cytotoxicity control, cell-based, fluorescence, Alamar Blue, secondary assay (AID 2327); type: functional;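 also: NIH-3T3 mouse fibroblasts cultured with fluconazole at 8 µg/mL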
Streptococcus = experiment: Group A Streptococcus viability loss, dose response, counter-screen for streptokinase expression inhibitor project, luminescence, BacTiterGlo (AID 1915); type: functional, organism-based;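 also: potency for reduction of bacterial viability or growth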
[9] = inhibitors of SNCA 5'UTR-driven reporter translation, confirmation, H4 neuroglioma cells, luminescence (AID 1988); type: functional, cell-based
[10] = target: T2, Serine/threonine-protein phosphatase (Candida dubliniensis (strain CD36 / CBS 7987 / NCPF 3949 / NRRLY-17841) (Yeast), UniProt B9W6M3); experiment: calcineurin pathway inhibitors in yeast reporter, dose response, S. cerevisiae, CDRE-lacZ, luminescence, secondary (AID 2388); type: functional, cell-based;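 also: yeast reporter cells carrying a calcineurin-responsive lacZ construct stimulated with calcium chloride; luminescent beta-galactosidase reporter signal in whole cells rather than isolated phosphatase activity; potency for inhibition where a drop in reporter signal means calcineurin blockade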
T2 sequence (B9W6M3 whole entry): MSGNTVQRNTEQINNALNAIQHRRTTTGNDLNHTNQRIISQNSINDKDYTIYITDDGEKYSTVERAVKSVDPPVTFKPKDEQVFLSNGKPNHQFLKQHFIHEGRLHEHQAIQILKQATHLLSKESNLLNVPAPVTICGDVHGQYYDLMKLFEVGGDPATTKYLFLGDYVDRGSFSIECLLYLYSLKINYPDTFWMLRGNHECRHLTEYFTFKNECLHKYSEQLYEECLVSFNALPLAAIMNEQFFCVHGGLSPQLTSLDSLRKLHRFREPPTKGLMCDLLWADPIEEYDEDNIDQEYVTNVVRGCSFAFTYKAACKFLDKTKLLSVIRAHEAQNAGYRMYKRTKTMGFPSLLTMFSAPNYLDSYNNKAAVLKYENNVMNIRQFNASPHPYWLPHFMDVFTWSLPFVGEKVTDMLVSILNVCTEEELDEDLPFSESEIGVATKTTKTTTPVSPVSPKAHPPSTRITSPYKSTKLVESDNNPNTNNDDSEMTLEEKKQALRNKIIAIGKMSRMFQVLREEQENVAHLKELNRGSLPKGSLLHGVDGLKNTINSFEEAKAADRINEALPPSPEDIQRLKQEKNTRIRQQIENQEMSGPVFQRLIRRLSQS

[11] = test system: Streptococcus sp. 'group A'; experiment: growth inhibition of control SK(-) GAS strain, dose response, counter-screen for streptokinase expression inhibitor project, luminescence, kanamycin, BacTiterGlo, confirmation (AID 1900); type: functional, organism-based
[12] = C. albicans growth with fluconazole, confirmation, fluorescence, retest (AID 2467); type: functional, cell-based
[13] = inhibitors of firefly luciferase expression or activity, dose response, H4 neuroglioma cells, luminescence (AID 1990); type: functional, cell-based
[14] = target: ATP-dependent molecular chaperone HSP82 (Candida albicans (strain WO-1) (Yeast), UniProt C4YTQ8); experiment: loss of DOC-induced GRE-beta-galactosidase reporter signal, dose response, Hsp90 inhibitor project, S. cerevisiae, luminescence (AID 2400); type: functional, cell-based;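 also: beta-galactosidase luminescence from glucocorticoid response element reporter as proxy for Hsp90 function; inhibitor potency where signal loss means Hsp90 inhibition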
ATP-dependent molecular chaperone HSP82, sequence (C4YTQ8 whole entry): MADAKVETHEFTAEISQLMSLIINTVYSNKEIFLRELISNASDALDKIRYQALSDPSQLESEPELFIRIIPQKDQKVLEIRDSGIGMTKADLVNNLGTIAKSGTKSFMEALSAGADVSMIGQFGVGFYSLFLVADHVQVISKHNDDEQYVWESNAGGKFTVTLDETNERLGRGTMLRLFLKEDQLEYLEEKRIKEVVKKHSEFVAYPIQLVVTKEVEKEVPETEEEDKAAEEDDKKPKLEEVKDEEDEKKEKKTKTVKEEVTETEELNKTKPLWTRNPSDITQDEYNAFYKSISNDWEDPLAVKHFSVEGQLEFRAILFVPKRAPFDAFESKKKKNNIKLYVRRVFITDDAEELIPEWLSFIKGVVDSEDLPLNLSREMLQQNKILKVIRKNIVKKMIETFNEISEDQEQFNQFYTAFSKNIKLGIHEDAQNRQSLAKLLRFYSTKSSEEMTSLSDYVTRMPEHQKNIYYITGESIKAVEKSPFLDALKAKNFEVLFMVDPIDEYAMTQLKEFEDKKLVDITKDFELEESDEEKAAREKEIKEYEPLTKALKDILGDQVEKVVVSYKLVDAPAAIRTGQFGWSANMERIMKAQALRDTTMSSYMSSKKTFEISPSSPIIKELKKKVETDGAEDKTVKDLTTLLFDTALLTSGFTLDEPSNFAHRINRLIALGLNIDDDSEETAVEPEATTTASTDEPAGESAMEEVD

[15] = cytotoxicity in OVCAR8 ovarian cancer cells, dose response, PAX8 project, cell-based, plate reader, dry powder samples (AID 743197); type: functional; conditions: OVCAR-8
Paired box protein Pax-8 = Paired box protein Pax-8 (Homo sapiens, UniProt Q06710); experiment: inhibitors of PAX8-driven TPO luciferase reporter, dose response, RMG-I cells, cherry-pick (AID 687027); type: functional, cell-based;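 also: luciferase reporter driven by Pax8 target thyroperoxidase promoter measured by SteadyGlo luminescence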
Paired box protein Pax-8, sequence (Q06710 whole entry): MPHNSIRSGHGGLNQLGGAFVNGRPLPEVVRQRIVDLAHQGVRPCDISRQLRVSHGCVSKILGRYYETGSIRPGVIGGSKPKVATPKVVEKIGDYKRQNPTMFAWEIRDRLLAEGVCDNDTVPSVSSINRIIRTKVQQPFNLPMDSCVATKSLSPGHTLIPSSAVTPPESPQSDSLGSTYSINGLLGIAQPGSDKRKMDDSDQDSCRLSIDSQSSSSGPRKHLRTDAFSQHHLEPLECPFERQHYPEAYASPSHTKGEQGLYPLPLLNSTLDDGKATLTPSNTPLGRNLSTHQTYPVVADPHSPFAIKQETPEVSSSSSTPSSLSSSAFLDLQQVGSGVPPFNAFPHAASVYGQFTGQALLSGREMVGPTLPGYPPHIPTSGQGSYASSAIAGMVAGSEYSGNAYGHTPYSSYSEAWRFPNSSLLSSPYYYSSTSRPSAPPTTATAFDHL

[16] = NIH:OVCAR-3 ovarian cancer cell cytotoxicity, dose response, PAX8 inhibitor project, plate reader, dry powder samples (AID 743044); type: functional, cell-based

In the case of CN(CCC#N)c1ccc(/C=C(\C#N)c2ccccn2)cc1, the IC50 (cells) is reported as > 67.5 µM (inactive) and the IC50 [1] is reported as > 0.834 µM (active).

For O=[N+]([O-])/C=C/c1cn(Cc2ccc(Cl)cc2)c2ccccc12, the IC50 [2] was 6.98 µM (active), the AC50 [3] was 1.88 µM (active) and the AC50 [4] was 5.81 µM (active). For the same compound, the AC50 [5] was 21.2 µM (active) and the AC50 [6] was 8.32 µM (active).

In the case of Cc1cccc(C(=O)CC(=O)c2cc(Cl)ccc2O)c1, the EC50 [7] is reported as 9.23 µM (active), the EC50 [8] is reported as 34.3 µM (active) and the EC50 (Streptococcus) is reported as 1.61 µM (active). The EC50 [9] was 5.25 µM (active), the EC50 [10] was > 180 µM (inactive) and the EC50 [11] was 1.01 µM (active). The EC50 [12] was 1.09 µM (active), the EC50 [13] was 8.03 µM (active) and the EC50 [14] was 3.18 µM (active).

For CCC1(O)CC2CN(CCc3c([nH]c4ccccc34)C(C(=O)OC)(c3cc4c(cc3OC)N(C=O)C3C(O)(C(=O)OC)C(OC(C)=O)C5(CC)C=CCN6CCC43C65)C2)C1 (stereo not drawn), the IC50 (cells) was > 67.5 µM (inactive) and the IC50 [1] was 0.386 µM (active).

In the case of N#Cc1cccc(-c2ccc3c(c2)[C@@H]2[C@@H](CCN2C(=O)C2CCCCC2)[C@@H](CO)N3)c1, the AC50 [15] is reported as 61.9 µM (active) and the AC50 (Paired box protein Pax-8) is reported as 17.8 µM (active).

For C[C@@H]1CCCCO[C@H](CN(C)Cc2ccc(Cl)c(Cl)c2)[C@H](C)CN([C@@H](C)CO)C(=O)c2cc(NC(=O)Nc3ccc(C(F)(F)F)cc3)ccc2O1, the AC50 [15] was 51.1 µM (active), the AC50 [16] was 20.1 µM (active) and the AC50 (Paired box protein Pax-8) was 5.49 µM (active).
